# Entries after “also recorded” stand apart in the source; their conditions may differ. Residues, ends and D or L forms follow the SMILES beside them. No end group written: not given here. *: point of attachment. Hexanoyl(6-Ph) = O=C(CCCCCc1ccccc1)*
# Experiments:
# [1] = cited from earlier work
# [2] = tested on: virgin females of Heliothis virescens; test: Pheromonotropic assay (injection); assay type: in vivo; conditions: 0.06-200 pmol, 60 min after injection, FIG. 5
# Procedure: Pupae of H. virescens were obtained from a laboratory colony maintained at the Insect Attractants, Behavior and Basic Biology Research Laboratory, USDA-ARS, in Gainesville, Fla. The pupae were separated by sex and the males were discarded. After eclosion, the females were held in 4-1 cages and provided with cotton wicks soaked with 5% sucrose solution. The insects were held at 25°±2° C, 65±3% relative humidity with a 12:12 (L:D) photoperiod. Virgin females were used for bioassays 2 and 3 days after eclosion during the 7th-8th hour of the photophase when endogenous levels of pheromone are very low (Abernathy, 1995, Regulation of sex pheromone production and oviposition in virgin females of noctuid moths, doctoral dissertation, University of Florida, Gainesville, Fla., pp. 1-107).
# Pheromone biosynthesis neuropeptide from H. zea (Hez--PBAN) and the carboranyl pseudopeptide Cbe--Thr--Pro--Arg--Leu--NH2 were dissolved in physiological saline (Christensen et al., 1991, Proc. Natl. Acad. Sci. USA, 88:4971-4975). Female H. virescens insects were injected through the side of the third abdominal segment using a 26-ga needle with 20 μl of the above solutions. Each female received a dose of 0.01, 0.03, 0.1, 0.3, 1, 3, 10, 30, 100 or 300 pmol. After 1 h of incubation, the terminal abdominal segments, which contain the pheromone gland, were excised and placed in 10 μl of hexane containing 10 ng each of internal standards (octadecane and nonadecane) used for quantitation and calculation of relative retention indices. The pheromone gland extracts were analyzed for the amount of (Z)-11-hexadecenal (Z11-16:AL), the major sex pheromone component of H. virescens (Klun et al., 1980, J. Chem. Ecol., 6:165-175) by capillary gas chromatography. Hewlett-Packard 5890 gas chromatographs were equipped with splitless injectors, flame ionization detectors, and 30 m×0.25 mm (i.d.) fused silica "SPB 10" (polar) or "SPB1" (apolar) columns (Supelco). Conditions of chromatography were as follows: initial temperature=60° C.; injector operated in the splitless mode for 0.5 min; oven temperature increased by 30° C./min after 1 min; final temperature=190° C. ("SPB10") or 200° C. ("SPB1"); helium carrier gas at a linear flow velocity of 18 cm/s. A Nelson Analytical 3000° acquisition system (Cupertino, Calif.) was used to collect and analyze the data (Teal et al., 1989, Proc. Natl. Acad. Sci. USA, 86:2488-2492).
# After the dose response of Hez--PBAN was completed, the […] dose was chosen to use for comparison with the carboranyl pseudopeptide assayed here. Insects were also injected with saline alone as a control. The pseudopeptide was prepared by dilution with saline as described above. Based on the dose-response for the activity of Hez--PBAN, […] were chosen to assess the pheromonotropic activity of the carboranyl pseudopeptide. Females were injected with 20 μl containing 0.01, 0.03, 0.1, 0.3, 1, 3, 10, 30, 100, or 300 pmol. Each bioassay consisted of one dose of several different peptides along with saline and Hez--PBAN controls. The amount of pheromone present in extracts of the pheromone glands of females from each group was compared with that produced by females injected with 5 pmol of Hez--PBAN during that particular bioassay. After all the bioassays were completed, the amount of pheromone produced by each insect was calculated as a percentage of the amount of pheromone produced by females treated with Hez--PBAN. Data were analyzed using one-way ANOVA and t-test with "STATVIEW" software. Variability was reported as SEM.
# The pheromonotropic activity of Hez--PBAN, Lom--MT--II and [6--Pha--Ala^0 ]Lom--MT--II was first determined by a series of injection bioassays. Peptides were dissolved in physiological saline (Christensen et al., ibid) and diluted to concentrations of 0.003, 0.01, 0.03, 0.1, 0.3, 1.0, 3.0 and 10.0 pmol/μl. Insects were injected through the side of the 3rd abdominal segment using a 26 ga. needle with 20 μl of the above solutions. […]
# [3] = tested on: virgin females of Heliothis virescens; test: Pheromonotropic assay (topical application); assay type: in vivo; conditions: for pheromone production, topical 500 pmol/female in 80% acetonitrile: 80% acetonitrile in water; for pheromone production, topical 500 pmol/female in 80% acetonitrile / pheromone production, topical 500 pmol/female in DMSO / pheromone production, topical 500 pmol/female in water: FIG. 7; for pheromone production after topical application in DMSO: descaled cuticle
# Procedure: The amphiphilic carboranyl analog Cbe--Thr--Pro--Arg--Leu--NH2 was dissolved in water and solutions at concentrations of 5, 10, 25, 60, and 200 pmol/μl were prepared. The cuticular scales along the lateral side of the abdomen were removed with a 1 ml plastic pipet tip attached to house vacuum with a rubber hose. A low vacuum was applied to the apparatus and the pipet tip was gently passed over the cuticle until the scales were drawn by suction. After the scales were removed, 1 μl of peptide solution was applied to the surface of the cuticle and smoothed evenly over the prepared surface. […]
# Pupae of Heliothis virescens were obtained from a laboratory colony maintained at the Insect Attractants Behavior and Basic Biology Research Laboratory, USDA-ARS, Gainesville, Fla. The pupae were separated by sex and the females were held in 4-1 cages. Cages were inspected daily for newly eclosed adults which were transferred to new cages and provided with cotton wicks soaked with a 5% sucrose solution. The insects were held at 25°[…] C. and 65%±3% relative humidity with a 12:12 (L:D) photoperiod. Virgin females were used for bioassays 2 and 3 days after eclosion during the 7th-8th hour of the photophase when little or no pheromone is present in the gland (Teal et al., 1993, Can. Entomol., 153:355-366). The cuticular scales were removed from the lateral side of the abdomen using a plastic pipet tip attached to house vacuum using a rubber hose. A low vacuum was applied and the pipet tip was passed gently over the cuticle until the scales were drawn off by suction. Insects were returned to the incubator for 24 h after the scales were removed for most experiments. However, insects were not given a recovery period in studies in which peptides were applied in DMSO (see below).
# In initial studies we used dimethyl sulfoxide (DMSO) as a carrier to deliver Hez--PBAN or [6--Pha--Ala^0 ]Lom--MT--II for topical applications. […] We also assessed different carrier solvents for their ability to deliver these two peptides. Peptides were dissolved at a concentration of 500 pmol/μl in: DMSO, water, or 80% acetonitrile:20% water. Solutions were applied to the descaled abdomen in 1 μl of solvent as above. The insects were allowed to incubate for 1 h prior to excision and extraction of the pheromone gland. Extracts were analyzed for the amount of pheromone as above.
# The use of water as a carrier for [6--Pha--Ala^0 ]Lom--MT--II was also assessed in dose response and temporal activity studies. For dose response studies [6--Pha--Ala^0 ]Lom--MT--II was dissolved in water at concentrations of 5, 10, 25, 50, 75, 100, 250, 500, 750 and 1000 pmol/μl. Insects were incubated for 60 min after application of 1 μl of solution to the descaled abdomen. In temporal activity studies a 100 pmol/μl dose was selected. For these experiments insects were incubated for periods of 15, 30, 60, 120, or 180 min after application of 1 μl of solution to the descaled abdomen. The ability of the parent peptide, Lom--MT--II, to stimulate pheromone production when applied topically in water was assessed by applying doses of 50, 100, 250 and 500 pmol to the abdomen. Control treatments for this experiment included insects treated with only water and females treated by topical application of 100 pmol of [6--Pha--Ala^0 ]Lom--MT--II. After incubation the sex pheromone glands were excised, extracted and analyzed for the amount of pheromone.
# [4] = tested on: isolated cockroach (Leucophaea maderae) hindgut; test: Cockroach myotropic bioassay (isolated hindgut); assay type: cell-based; conditions: isolated hindgut, FIG. 2; listed as LPK
# Procedure: Leucophaea maderae cockroaches were taken from stock colonies maintained at 27° C. and fed dry dog food ad lib. Cockroach hindguts, free of central nervous system (CNS) tissue, were dissected, immersed in saline, and prepared for recording of myogenic activity as previously described (Holman et al., 1991, ibid). Threshold concentrations were determined for each analogue by adding a known quantity of peptide (dissolved in 0.5 ml bioassay saline) to the bioassay chamber containing the hindgut and observing the response on a Gould 2200S oscillograph recorder. The quantity of the peptide analogues was calculated from the values obtained for Phe and/or Leu in the amino acid analysis. The threshold concentration was defined as the minimum concentration of peptide in the chamber required to evoke an observable change in the frequency (50%) or amplitude of contractions (5%) within 1 min and sustained for 3 min. Threshold concentrations were obtained from five cockroach hindguts on 5 consecutive days for each peptide. Quantitative data for dose-response plots were obtained as previously described (Holman et al., 1991, ibid).
# [5] = tested on: isolated cockroach (Leucophaea maderae) hindgut; conditions: values printed with reference numbers; cited from earlier work
# corn earworm moth H. zea = conditions: cited from earlier work
# [6] = tested on: virgin females of Heliothis virescens; conditions: H. virescens, printed with reference number; cited from earlier work
# [7] = tested on: virgin females of Heliothis virescens; conditions: 100 pmole dose, cited from earlier work
# [8] = aqueous solution, 15 min to 3 hr
compound,measurement,setting,value
proctolin,fate of ingested peptide in the gut,[1]; in vivo,rendered inactive in the gut
CC(C)C[C@H](NC(=O)[C@H](CCCNC(=N)N)NC(=O)[C@@H]1CCCN1C(=O)[C@@H](NC(=O)[C@H](Cc1ccccc1)NC(=O)[C@H](CC(=O)O)NC(=O)CNC(=O)[C@H](CCC(=O)O)NC(=O)[C@H](C)NC(=O)CCCCCc1ccccc1)[C@@H](C)O)C(N)=O [[6--Pha--Ala^0]Lom--MT--II] ({Hexanoyl(6-Ph)}-AEGDFTPRL-NH2),"pheromonotropic activity of injected peptide, compared",[2],"reduced the activity, compared to Lom--MT--II, at doses up to 6 pmol; also recorded: equivalent to Hez--PBAN at all other doses"
same,"pheromonotropic activity of injected peptide, compared",[2]; listed as [6--Pha--Ala^0]Lom--MT--II,pheromonotropic activity equivalent to Hez--PBAN
same,time after application at which gland extracts contained significant amounts of pheromone,"[3]; 100 pmol in water, FIG. 9",≤ 15 min
same,time of maximal activity after application,"[3]; 100 pmol in water, FIG. 9",60 min
same,"pheromone production, topical 500 pmol/female in 80% acetonitrile",[3]; 60 min,significant amounts of pheromone; also recorded: induced the production of pheromone
same,response to topical application of 5 and 10 pmol doses in DMSO,"[3]; DMSO carrier, 60 min, FIG. 6",produced pheromone
same,"amount of pheromone at 100 to 1000 pmol/female, topical in DMSO","[3]; DMSO carrier, FIG. 6",equivalent amounts of pheromone
same,pheromone production after topical application in DMSO,[3]; DMSO carrier,produced pheromone; also recorded: effective in stimulating pheromone production
same,"pheromone production, topical 500 pmol/female in DMSO",[3]; 60 min,equivalent amounts of pheromone
same,"concentration giving maximal pheromone stimulation, topical application",[3]; topically applied,100 picomoles/insect
same,dose up to which activity increased in a linear fashion (100-1000 pmol not different),"[3]; water carrier, 60 min, FIG. 8",100 pmol
same,"doses stimulating significantly more pheromone than just water, topical in water","[3]; water carrier, 60 min, FIG. 8",≥ 10 pmol
same,"pheromone production, topical 500 pmol/female in water",[3]; 60 min,significant amounts of pheromone
"pQTSPhe--Thr--Pro--Arg--Leu--NH2 (pQTS-FTPRL-NH2) [octapeptide leucopyrokinin of the cockroach Leucophaea maderae, reference compound]",reversibility of myostimulatory response by saline rinse,[4],immediately reversed by a saline rinse; also recorded: immediately vanished following a saline rinse; also recorded: subsides immediately following a saline rinse
same,"Threshold Concentration, myostimulation of the isolated cockroach hindgut",[5],650 pM
same,Maximal Response via injection (dose),corn earworm moth H. zea; data from H. zea,70 pmol
same,"ED50, pheromone production via injection",corn earworm moth H. zea; data from the related corn earworm moth H. zea,5 pmol
"LSDDMPATPADQEMYRQDPEQIDSRTKYFSPRL-NH2 [HezPBAN, reference compound]","pheromone versus water-only controls, time course, topical in water","[3]; 100 pmol in water, 15-180 min, FIG. 9",no different from controls at any time interval; also recorded: did not contain more pheromone than was present in extracts obtained from insects treated with water only
same,"pheromone production, topical 500 pmol/female in 80% acetonitrile",[3]; 60 min,no significant activity
same,amount required to stimulate significant pheromone production relative to [6--Pha--Ala^0 ]Lom--MT--II,[3]; DMSO carrier,ten fold more
same,"dose from which pheromone is produced, topical in DMSO","[3]; DMSO carrier, 60 min, FIG. 6",50 pmol/female
same,"amount of pheromone at 100 to 1000 pmol/female, topical in DMSO","[3]; DMSO carrier, FIG. 6",equivalent amounts of pheromone
same,pheromone production after topical application in DMSO,[3]; DMSO carrier,produced pheromone; also recorded: effective in stimulating pheromone production
same,"pheromone production, topical 500 pmol/female in DMSO",[3]; 60 min,equivalent amounts of pheromone
same,pheromone production when applied to the surface of the cuticle in water,[3]; water carrier,failed to stimulate production of significant amounts of pheromone
same,"pheromone production, topical 500 pmol/female in water",[3]; 60 min,no significant activity
same,"Threshold Concentration, myostimulation of the isolated cockroach hindgut",[5],"2,600 pM"
same,"ED50, pheromone production via injection",[6],1.0 pmol
same,Maximal Response via injection (dose),[6],5.0 pmol
same,pheromone production over control group after topical aqueous application,"[7]; 15 min, 1 hr, 2 hr, 3 hr following treatment, listed as PBAN",does not lead to production of statistically different levels of pheromone production
same,"ED50, pheromone production via topical application",[7]; [8],Inactive
same,Maximal Response via topical application,[7]; [8],Inactive
same,share of orally administered peptide entering the hemolymph through the gut wall,[1]; oral administration,approximately 5%
